Test results reported in ChEMBL document CHEMBL5678818, “Discovery of potent SOS1 inhibitors that block RAS activation via disruption of the RAS-SOS1 interaction” (Proc Natl Acad Sci U S A, 2019).

Key:
[1] = target: Aurora kinase B (Homo sapiens) (UniProt Q96GD4); assay: Inhibition of AURKB (unknown origin) assessed as residual activity at 1000 nM by KINOMEscan analysis relative to control
[2] = target: T1, NUAK family SNF1-like kinase 2 (Homo sapiens) (UniProt Q9H093); assay: Inhibition of SNARK (unknown origin) assessed as residual activity at 1000 nM by KINOMEscan analysis relative to control
T1 sequence (whole entry): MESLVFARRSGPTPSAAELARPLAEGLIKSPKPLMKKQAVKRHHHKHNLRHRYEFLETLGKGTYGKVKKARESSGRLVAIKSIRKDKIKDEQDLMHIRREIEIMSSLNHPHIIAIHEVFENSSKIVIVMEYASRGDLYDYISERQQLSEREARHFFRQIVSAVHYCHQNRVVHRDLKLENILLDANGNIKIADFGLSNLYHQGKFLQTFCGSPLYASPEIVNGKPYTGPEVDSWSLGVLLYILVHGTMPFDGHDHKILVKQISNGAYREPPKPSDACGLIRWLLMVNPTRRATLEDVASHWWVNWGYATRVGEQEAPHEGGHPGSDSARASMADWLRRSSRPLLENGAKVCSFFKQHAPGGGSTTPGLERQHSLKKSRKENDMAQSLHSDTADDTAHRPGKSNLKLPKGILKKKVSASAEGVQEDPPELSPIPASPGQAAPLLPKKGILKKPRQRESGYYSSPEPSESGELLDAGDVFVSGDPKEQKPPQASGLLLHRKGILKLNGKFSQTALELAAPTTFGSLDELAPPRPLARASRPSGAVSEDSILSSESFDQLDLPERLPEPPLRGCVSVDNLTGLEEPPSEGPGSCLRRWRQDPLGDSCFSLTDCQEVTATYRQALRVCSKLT

[3] = target: T2, Serine/threonine-protein kinase D3 (Homo sapiens) (UniProt O94806); assay: Inhibition of PRKD3 (unknown origin) assessed as residual activity at 1000 nM by KINOMEscan analysis relative to control
T2 sequence (whole entry): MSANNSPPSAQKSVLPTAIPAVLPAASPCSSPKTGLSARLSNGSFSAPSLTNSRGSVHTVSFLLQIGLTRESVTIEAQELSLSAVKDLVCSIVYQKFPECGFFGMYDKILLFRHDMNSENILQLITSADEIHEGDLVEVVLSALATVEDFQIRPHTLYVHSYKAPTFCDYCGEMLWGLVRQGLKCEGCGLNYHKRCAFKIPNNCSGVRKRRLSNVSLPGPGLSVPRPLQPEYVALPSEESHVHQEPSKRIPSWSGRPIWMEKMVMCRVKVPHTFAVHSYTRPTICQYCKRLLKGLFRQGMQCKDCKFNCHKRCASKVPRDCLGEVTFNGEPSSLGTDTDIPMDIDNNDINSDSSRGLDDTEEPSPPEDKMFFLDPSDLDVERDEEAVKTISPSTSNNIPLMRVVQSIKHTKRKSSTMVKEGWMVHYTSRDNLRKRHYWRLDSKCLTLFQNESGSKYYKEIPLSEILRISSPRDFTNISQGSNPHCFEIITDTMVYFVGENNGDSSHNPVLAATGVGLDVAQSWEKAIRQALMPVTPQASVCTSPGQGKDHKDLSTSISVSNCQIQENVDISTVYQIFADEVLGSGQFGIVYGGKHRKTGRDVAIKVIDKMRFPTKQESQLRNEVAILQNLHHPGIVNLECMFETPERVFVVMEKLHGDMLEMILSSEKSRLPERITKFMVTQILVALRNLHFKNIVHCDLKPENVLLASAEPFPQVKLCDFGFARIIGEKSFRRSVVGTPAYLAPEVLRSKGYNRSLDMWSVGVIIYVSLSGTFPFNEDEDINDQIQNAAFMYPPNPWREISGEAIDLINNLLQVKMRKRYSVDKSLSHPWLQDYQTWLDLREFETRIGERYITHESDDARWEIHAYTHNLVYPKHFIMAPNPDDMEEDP

[4] = target: STE20-like serine/threonine-protein kinase (Homo sapiens) (UniProt Q9H2G2); assay: Inhibition of SLK (unknown origin) assessed as residual activity at 1000 nM by KINOMEscan analysis relative to control
[5] = target: T3, Non-receptor tyrosine-protein kinase TNK1 (Homo sapiens) (UniProt Q13470); assay: Inhibition of TNK1 (unknown origin) assessed as residual activity at 1000 nM by KINOMEscan analysis relative to control
T3 sequence (whole entry): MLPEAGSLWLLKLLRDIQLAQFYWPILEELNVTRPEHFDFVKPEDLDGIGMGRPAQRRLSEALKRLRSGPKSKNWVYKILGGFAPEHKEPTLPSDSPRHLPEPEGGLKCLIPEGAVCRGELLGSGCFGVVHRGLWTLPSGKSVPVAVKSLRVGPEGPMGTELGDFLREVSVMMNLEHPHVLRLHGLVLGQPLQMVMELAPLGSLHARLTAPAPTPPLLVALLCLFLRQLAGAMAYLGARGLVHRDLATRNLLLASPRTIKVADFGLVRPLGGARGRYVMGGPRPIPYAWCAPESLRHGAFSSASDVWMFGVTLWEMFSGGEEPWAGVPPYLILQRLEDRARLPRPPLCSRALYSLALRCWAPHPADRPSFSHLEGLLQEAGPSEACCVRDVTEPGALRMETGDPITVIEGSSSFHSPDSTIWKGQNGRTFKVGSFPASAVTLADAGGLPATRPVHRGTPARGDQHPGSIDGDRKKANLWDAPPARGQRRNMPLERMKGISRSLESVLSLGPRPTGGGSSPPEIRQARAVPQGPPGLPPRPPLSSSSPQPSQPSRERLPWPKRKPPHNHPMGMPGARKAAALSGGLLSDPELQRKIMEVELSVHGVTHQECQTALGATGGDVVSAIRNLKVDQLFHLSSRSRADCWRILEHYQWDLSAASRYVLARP

[6] = target: Serine/threonine-protein kinase Chk2 (Homo sapiens) (UniProt O96017); assay: Inhibition of CHEK2 (unknown origin) assessed as residual activity at 1000 nM by KINOMEscan analysis relative to control
[7] = test system: Receptor-type tyrosine-protein kinase FLT3 (Homo sapiens), P36888 [R834Q]; assay: Inhibition of FLT3 R834Q mutant (unknown origin) assessed as residual activity at 1000 nM by KINOMEscan analysis relative to control
[8] = target: Cyclin-dependent kinase 9 (Homo sapiens) (UniProt P50750); assay: Inhibition of CDK9 (unknown origin) assessed as residual activity at 1000 nM by KINOMEscan analysis relative to control
[9] = target: High affinity nerve growth factor receptor (Homo sapiens) (UniProt P04629); assay: Inhibition of TRKA (unknown origin) assessed as residual activity at 1000 nM by KINOMEscan analysis relative to control
Homo sapiens = species: Homo sapiens; assay: Inhibition of JNK2 (unknown origin) assessed as residual activity at 1000 nM by KINOMEscan analysis relative to control
[10] = target: Dual specificity protein kinase CLK3 (Homo sapiens) (UniProt P49761); assay: Inhibition of CLK3 (unknown origin) assessed as residual activity at 1000 nM by KINOMEscan analysis relative to control
Sequence of Dual specificity protein kinase CLK3 (Homo sapiens) (P49761 whole entry, looked up): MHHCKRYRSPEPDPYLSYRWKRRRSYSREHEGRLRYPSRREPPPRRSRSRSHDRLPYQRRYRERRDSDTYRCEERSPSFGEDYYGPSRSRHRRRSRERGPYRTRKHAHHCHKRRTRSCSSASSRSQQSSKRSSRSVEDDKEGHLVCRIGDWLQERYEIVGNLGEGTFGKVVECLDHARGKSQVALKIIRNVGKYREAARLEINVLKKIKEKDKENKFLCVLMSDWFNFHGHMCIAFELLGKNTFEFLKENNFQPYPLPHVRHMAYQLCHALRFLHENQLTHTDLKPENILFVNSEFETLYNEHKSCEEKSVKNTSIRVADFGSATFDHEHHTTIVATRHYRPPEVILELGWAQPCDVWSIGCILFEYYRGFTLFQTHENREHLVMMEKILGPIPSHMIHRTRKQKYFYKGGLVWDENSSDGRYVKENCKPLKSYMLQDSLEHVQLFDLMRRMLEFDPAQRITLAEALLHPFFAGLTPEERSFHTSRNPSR

Sequence of Serine/threonine-protein kinase Chk2 (Homo sapiens) (O96017 whole entry): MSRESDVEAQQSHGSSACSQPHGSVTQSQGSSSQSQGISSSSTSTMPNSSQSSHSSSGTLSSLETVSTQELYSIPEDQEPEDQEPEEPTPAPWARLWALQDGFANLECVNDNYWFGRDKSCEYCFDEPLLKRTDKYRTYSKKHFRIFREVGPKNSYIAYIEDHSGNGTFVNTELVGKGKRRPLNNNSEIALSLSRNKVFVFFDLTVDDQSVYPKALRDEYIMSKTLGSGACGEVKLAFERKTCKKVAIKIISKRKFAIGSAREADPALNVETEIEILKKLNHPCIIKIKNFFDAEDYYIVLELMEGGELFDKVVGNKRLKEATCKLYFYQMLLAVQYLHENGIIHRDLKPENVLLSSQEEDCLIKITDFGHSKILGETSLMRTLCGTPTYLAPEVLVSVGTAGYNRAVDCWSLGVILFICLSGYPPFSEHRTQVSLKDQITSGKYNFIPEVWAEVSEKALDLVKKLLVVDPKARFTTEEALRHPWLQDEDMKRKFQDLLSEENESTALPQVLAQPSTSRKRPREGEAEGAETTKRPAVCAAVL
Sequence of Aurora kinase B (Homo sapiens) (Q96GD4 whole entry): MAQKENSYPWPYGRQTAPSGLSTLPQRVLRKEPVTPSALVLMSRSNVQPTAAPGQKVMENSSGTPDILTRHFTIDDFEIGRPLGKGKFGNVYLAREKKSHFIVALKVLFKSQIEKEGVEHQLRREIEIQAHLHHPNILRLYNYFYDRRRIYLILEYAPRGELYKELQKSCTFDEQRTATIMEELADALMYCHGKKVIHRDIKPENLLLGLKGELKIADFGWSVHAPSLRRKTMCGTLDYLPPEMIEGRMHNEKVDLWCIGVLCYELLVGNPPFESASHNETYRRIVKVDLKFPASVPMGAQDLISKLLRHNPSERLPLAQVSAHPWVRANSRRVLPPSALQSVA
Sequence of High affinity nerve growth factor receptor (Homo sapiens) (P04629 33-796 limits assumed): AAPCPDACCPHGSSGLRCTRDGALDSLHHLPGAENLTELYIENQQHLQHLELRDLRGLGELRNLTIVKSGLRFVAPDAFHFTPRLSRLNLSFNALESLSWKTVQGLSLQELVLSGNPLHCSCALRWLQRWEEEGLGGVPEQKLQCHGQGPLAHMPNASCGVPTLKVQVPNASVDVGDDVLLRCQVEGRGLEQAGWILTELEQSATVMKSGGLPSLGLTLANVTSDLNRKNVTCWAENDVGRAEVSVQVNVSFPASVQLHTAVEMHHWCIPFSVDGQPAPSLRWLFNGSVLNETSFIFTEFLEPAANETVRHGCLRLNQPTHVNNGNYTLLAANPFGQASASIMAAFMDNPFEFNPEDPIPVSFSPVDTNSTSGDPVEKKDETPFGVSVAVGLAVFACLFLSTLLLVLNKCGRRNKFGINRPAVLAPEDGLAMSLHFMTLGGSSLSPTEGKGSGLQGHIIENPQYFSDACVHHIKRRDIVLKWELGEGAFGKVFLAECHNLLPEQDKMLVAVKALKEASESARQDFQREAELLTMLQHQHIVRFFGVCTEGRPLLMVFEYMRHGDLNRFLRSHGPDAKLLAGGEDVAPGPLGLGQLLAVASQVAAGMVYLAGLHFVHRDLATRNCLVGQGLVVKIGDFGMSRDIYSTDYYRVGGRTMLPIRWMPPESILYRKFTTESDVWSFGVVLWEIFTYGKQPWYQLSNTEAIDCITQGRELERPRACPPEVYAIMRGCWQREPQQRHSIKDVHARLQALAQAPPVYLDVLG
Sequence of STE20-like serine/threonine-protein kinase (Homo sapiens) (Q9H2G2 whole entry, looked up): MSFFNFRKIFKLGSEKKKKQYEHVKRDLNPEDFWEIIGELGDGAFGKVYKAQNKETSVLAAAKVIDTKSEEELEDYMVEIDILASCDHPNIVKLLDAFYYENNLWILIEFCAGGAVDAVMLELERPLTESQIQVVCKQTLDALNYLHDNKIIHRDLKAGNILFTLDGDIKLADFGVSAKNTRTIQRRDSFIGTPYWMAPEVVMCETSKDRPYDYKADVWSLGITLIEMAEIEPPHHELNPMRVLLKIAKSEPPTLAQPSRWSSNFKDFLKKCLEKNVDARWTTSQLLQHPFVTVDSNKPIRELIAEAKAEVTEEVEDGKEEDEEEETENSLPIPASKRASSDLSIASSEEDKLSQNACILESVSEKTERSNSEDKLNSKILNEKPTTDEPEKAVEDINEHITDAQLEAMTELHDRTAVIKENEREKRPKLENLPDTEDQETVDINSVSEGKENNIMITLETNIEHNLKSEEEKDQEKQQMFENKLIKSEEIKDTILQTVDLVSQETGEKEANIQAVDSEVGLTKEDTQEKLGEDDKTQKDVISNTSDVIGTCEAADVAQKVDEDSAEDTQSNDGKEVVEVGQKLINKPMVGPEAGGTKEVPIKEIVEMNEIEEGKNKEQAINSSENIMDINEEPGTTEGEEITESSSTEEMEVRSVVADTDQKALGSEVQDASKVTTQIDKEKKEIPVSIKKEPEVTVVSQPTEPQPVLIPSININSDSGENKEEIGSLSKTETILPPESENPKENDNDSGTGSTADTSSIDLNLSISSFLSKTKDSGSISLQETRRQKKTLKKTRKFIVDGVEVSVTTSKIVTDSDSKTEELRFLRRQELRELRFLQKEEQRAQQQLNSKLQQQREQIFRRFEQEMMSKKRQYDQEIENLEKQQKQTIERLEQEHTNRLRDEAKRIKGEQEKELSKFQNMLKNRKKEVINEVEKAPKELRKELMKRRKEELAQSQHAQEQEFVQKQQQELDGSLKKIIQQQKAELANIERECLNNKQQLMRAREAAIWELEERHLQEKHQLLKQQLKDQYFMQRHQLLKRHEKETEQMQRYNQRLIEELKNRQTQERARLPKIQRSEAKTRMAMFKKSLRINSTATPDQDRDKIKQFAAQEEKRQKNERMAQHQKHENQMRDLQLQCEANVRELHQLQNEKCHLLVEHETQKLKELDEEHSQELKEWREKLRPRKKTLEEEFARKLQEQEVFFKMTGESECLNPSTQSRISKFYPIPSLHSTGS
Sequence of Cyclin-dependent kinase 9 (Homo sapiens) (P50750 whole entry): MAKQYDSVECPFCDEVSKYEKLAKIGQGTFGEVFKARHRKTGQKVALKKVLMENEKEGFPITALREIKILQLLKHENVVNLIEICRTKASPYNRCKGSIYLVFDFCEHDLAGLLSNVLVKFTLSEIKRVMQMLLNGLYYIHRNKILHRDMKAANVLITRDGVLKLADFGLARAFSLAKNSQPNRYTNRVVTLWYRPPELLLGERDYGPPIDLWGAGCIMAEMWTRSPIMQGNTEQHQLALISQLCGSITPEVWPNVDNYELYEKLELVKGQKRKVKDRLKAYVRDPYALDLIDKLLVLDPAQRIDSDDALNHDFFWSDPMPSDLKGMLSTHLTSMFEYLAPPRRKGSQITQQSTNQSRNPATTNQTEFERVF

| Structure (SMILES) | Activity [1] [%] | Activity [2] [%] | Activity [3] [%] | Activity [4] [%] | Activity [5] [%] | Activity [6] [%] | Activity [7] [%] | Activity [8] [%] | Activity [9] [%] | Activity (Homo sapiens) [%] | Activity [10] [%] |
| --- | --- | --- | --- | --- | --- | --- | --- | --- | --- | --- | --- |
| COc1cc2ncnc(N[C@H](C)c3cccc4ccccc34)c2cc1OC | 98 | 95 | 100 | 84 | 100 | 73 | 91 | 95 | 97 | 93 | 100 |
| COc1cc2nc(C)nc(N[C@H](C)c3cccc(-c4cn[nH]c4)c3)c2cc1OC | 79 | 100 | 100 | 61 | 100 | 89 | 89 | 95 | 99 | 71 | 81 |
